Results taken from EP4640234A1, “PHARMACEUTICAL COMPOSITION FOR PREVENTING OR TREATING GRAFT-VERSUS-HOST DISEASE CONTAINING GLP-2 DERIVATIVE OR LONG-ACTING CONJUGATE THEREOF” (Hanmi Pharm. Co., Ltd., priority 2022, dated 2024).

Tested on: SR-GVHD model induced by allogeneic transplantation
Test: SR-GVHD mouse allogeneic transplantation model, switching from steroid to conjugate (Example 4)
Assay type: in vivo, BALB/C mice (recipients)
Conditions: Group 2: Apraglutide 469 µg/kg once every other day, subcutaneously, from 3 days after splenocyte injection; excipient group 21.4%; FIG. 4
Experimental: In order to construct a mouse allogeneic transplantation model as a graft-versus-host disease (GVHD) model, female donor mice C57BL/6j were purchased from OrientBio (Korea), and female recipient mice BALB/C were purchased from DBL (Korea). The mice were raised in a sterile environment with a 12-h light/dark cycle. Food and water were provided ad libitum, and all procedures were performed under the approval of the Animal Experimentation Committee.
In order to mobilize hematopoietic stem cells (HSCs) into peripheral blood from 13-week-old C57BL/6j mice (donors), 10 µg of G-CSF (granulocyte-colony stimulating factor) (PeproTech, USA) was injected subcutaneously for 5 days, and then 1.5 × 10^7 splenocytes were collected. The 1.5 × 10^7 splenocytes (200 µL volume) were injected into BALB/C mice (recipients) through the tail vein. […]
The numerical value expressed as the dose of the GLP-2 derivative long-acting conjugate herein is based on the value acquired by excluding the mass of the polyethylene glycol linker moiety from the total mass of the GLP-2 derivative long-acting conjugate used, that is, the sum of the masses of only the polypeptide moieties.
The onset signs were evaluated using the same criteria as in Table 3, the survival rate was determined, and the small intestine and colon tissues were harvested and pathological changes were observed.

Apraglutide
survival rate on day 25: 35.7%
